Assay results: patent publication US20170181971A1, “Nanoparticle- and Drug-Containing Polymersomes for Medical Applications” (Northeastern University, priority 2014, published 2017)

Tested on: ampicillin-resistant E. coli
Test: Bacterial growth curve (OD600 for 24 hours) after treatment
Assay type: cell-based
Description: Bacteria transformation. First, an overnight suspension of E. coli cells (strain K-12 HB101; Bio-Rad, Hercules, Calif.) was pelleted by centrifugation and re-suspended in 250 μL of cold 50 mM calcium chloride (Sigma-Aldrich, St. Louis, Mo.) and placed in an ice bath. After 15 minutes on ice, 10 μg of the plasmid DNA was added, and the cells were returned to the ice bath for an additional 15 minutes. The cells were then heat shocked by placing them in a 42° C. water bath for exactly 45 seconds and then rapidly transferring them back to the ice bath for 2 minutes. This solution was then mixed with 750 μL of Lysogeny broth (LB, Sigma-Aldrich, St. Louis, Mo.). Finally, the complete transformed bacteria solution was streaked for inoculation on a LBagar plate containing 100 μg mL−1 of ampicillin and allowed to incubate overnight at 37° C.
Bacterial interactions. For each experimental trial, a single bacterial colony was selected and grown overnight in LB on a shaking incubator set at 200 rpm and 37° C. […] 100 μL of the bacterial suspension was then combined with varying AgPs treatment concentrations or controls in a 96 well plate. The final treatment volume in each well was brought up to 100 μL using 0.01 M PBS (e.g. 100 μL treatment +0 μL PBS, 90 μL treatment+10 μL PBS, 80 μL treatment+20 μL PBS, etc.). Control treatments were given 100 μL of PBS to keep the media dilution consistent. […]

CC1(C)S[C@@H]2[C@H](NC(=O)[C@H](N)c3ccccc3)C(=O)N2[C@H]1C(=O)O [free ampicillin, ampicillin]
bacteriostatic action (delay in time to reach exponential growth phase) (10^6 CFU mL^−1, OD600 for 24 hours): no bacteriostatic effect | difference in bacterial growth between control treatments (incl. PBS) (ampicillin at 200 μg mL^−1, FIG. 7G): no significant differences
